{
  "source": "paper PMC10390652",
  "about": "(Inorganic chemistry, 2023)",
  "assay": "Biodistribution in healthy mice",
  "format": "in vivo, female Balb/c mice",
  "conditions": "in saline",
  "data": [
    {"smiles": "[47Sc+3].[Cl-].[Cl-].[Cl-]", "note": "[free ^47Sc]", "values": [
      {"measurement": "biodistribution pattern at 1 hour", "setting": "n=4", "value": "more widespread uptake within heart, lungs, spleen, kidney, and femur"},
      {"measurement": "biodistribution pattern at 1 hour", "setting": "n=4, listed as [^47Sc]ScCl3", "value": "widespread biodistribution with uptake seen in heart, spleen and kidneys along with the liver, and intestines"}
    ]}
  ]
}
